According to patent US7294640B2, “Mitotic kinesin inhibitors” (Merck & Co., Inc., priority 2004, dated 2007):

Biological target: T1, GST-MCAK fusion protein (Homo sapiens, UniProt Q99661)
T1 construct: The GST-MCAK fusion protein was purchased Cytoskeleton (cat. #MK01); fused on or other part: GST tag (N-terminal, by the vendor's product)
Assay: MCAK ATPase in vitro assay
Assay type: biochemical
Conditions: GST-MCAK 100 nM, 1 mM sodium ATP, 2 μM microtubules, RT 50 min, 5% DMSO
Procedure: V. MCAK ATPase in Vitro Assay
Reagents: The GST-MCAK fusion protein was purchased Cytoskeleton (cat. #MK01). Tubulin from bovine brain was purchased from Cytoskeleton (HTS-grade), BSA from Sigma (cat. # 3059). chloramphenicol from Boehringer Mannheim (cat. # 634433), ampicillin from Fisher Biotech (cat. # BP1760-25) and Paclitaxel from Cytoskeleton (cat. # TXD01)
Microtubule preparation: For the preparation of microtubules, purified tubulin (>97% MAP-free) at 1 mg/ml was polymerized at 37° C. in the presence of 10 μM paclitaxel, 1 mM DTT, 1 mM GTP in BRB80 buffer (80 mM K-PIPES, 1 mM EGTA, 1 mM MgCl2 at pH 6.8). The resulting microtubules were separated from non-polymerized tubulin by ultracentrifugation and removal of the supernatant. The pellet, containing the microtubules, was gently resuspended in 1×BRB 80 containing 10 μM paclitaxel, 1 mM DTT, 50 μg/ml ampicillin, 5 μg/ml chloramphenicol in BRB80.
MCAK ATPase assay: GST-MCAK at 100 nM was incubated with 1 mM sodium ATP, 2 μM microtubules with 2 μM paclitaxel (concentration refers to tubulin dimers), and inhibitor at RT for 50 min in reaction buffer (80 mM K-PIPES, 1 mM K-EGTA, 2 mM MgCl2, 1 mM DTT, and 100 μg/ml BSA, pH 6.9). Compounds were dissolved in DMSO, and the final DMSO concentration in the reaction was 5%. The reaction was terminated with a 2-fold dilution of the reaction with 2× stop buffer (50 mM EDTA/1.8 M KCl). The free phosphate from the ATP hydrolysis reaction was measured via a quinaldine red/ammonium molybdate assay by adding 1.5 volumes of quench C within 24 hrs of addition of stop buffer. (Cogan, E. B., Birrell, G. B., Griffith, O. H. (1999) Analytical Biochemistry 271, p 29). Quench C was prepared by adding 1 volume of quench B (12.3 mM ammonium molybdate tetrahydrate in 1.15 M sulfuric acid) to 2 volumes of quench A (0.1 mg/ml quinaldine red, 0.14% polyvinyl alcohol). The plate was incubated for 5 min at room temperature, and the absorbance of the phosphomolybdate complex was measured at 540 nm.

T1 sequence (Q99661 258-588 limits assumed): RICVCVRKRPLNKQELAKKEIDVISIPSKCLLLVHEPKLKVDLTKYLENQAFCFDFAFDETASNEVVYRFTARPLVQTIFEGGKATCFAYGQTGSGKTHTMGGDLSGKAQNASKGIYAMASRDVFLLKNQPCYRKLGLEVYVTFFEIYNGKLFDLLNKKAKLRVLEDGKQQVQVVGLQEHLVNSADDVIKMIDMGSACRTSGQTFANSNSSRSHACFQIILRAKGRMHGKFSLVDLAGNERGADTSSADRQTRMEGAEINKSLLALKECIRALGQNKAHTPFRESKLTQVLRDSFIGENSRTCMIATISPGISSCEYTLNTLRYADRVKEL

IC50, ≤ 50 µM:
Cc1cccc(C2(c3nc(-c4ccncc4)cs3)CC2)c1 [Compound 9-14, 4-{2-[1-(3-methylphenyl)cyclopropyl]-1,3-thiazol-4-yl}pyridine]
c1ccc(C2(c3nc(-c4cccnc4)cs3)CC2)cc1 [Compound 1-10, 3-[2-(1-phenylcyclopropyl)-1,3-thiazol-4-yl]pyridine]
Oc1ccc(-c2csc(C3(c4ccccc4)CC3)n2)cc1O [Compound 3-2, 4-(3,4-dihydroxyphenyl)-2-(1-phenylcyclopropyl)-1,3-thiazole]
Clc1cc(-c2csc(C3(c4ccccc4)CC3)n2)ccn1 [Compound 9-13, 2-chloro-4-[2-(1-phenylcyclopropyl)-1,3-thiazol-4-yl]pyridine]
Fc1ccccc1C1(c2nc(-c3ccncc3)cs2)CC1 [Compound 9-11, 4-{2-[1-(2-fluorophenyl)cyclopropyl]-1,3-thiazol-4-yl}pyridine]
OCc1cccc(-c2csc(C3(c4ccccc4)CC3)n2)c1 [Compound 5-1, {3-[2-(1-phenylcyclopropyl)-1,3-thiazol-4-yl]phenyl}methanol]
[O-][n+]1ccc(-c2csc(C3(c4ccccc4)CC3)n2)cc1 [Compound 2-3, 4-[2-(1-phenylcyclopropyl)-1,3-thiazol-4-yl]-1lambda~5~pyridin-1-ol]
Oc1cnccc1-c1csc(C2(c3ccccc3)CC2)n1 [Compound 3-3, 4-[2-(1-phenylcyclopropyl)-1,3-thiazol-4-yl]pyridin-3-ol]
Oc1ccc(-c2csc(C3(c4ccccc4)CC3)n2)cc1 [Compound 3-4, 4-[2-(1-phenylcyclopropyl)-1,3-thiazol-4-yl]phenol]
Oc1cccc(-c2csc(C3(c4ccccc4)CC3)n2)c1 [Compound 3-5, 3-[2-(1-phenylcyclopropyl)-1,3-thiazol-4-yl]phenol]
CC(c1ccccc1)c1nc(-c2ccc([N+](=O)[O-])cc2)cs1 (centres unmarked) [Compound 1-5, 4-(4-nitrophenyl)-2-(1-phenylethyl)-1,3-thiazole]
N#Cc1ccc(-c2csc(C3(c4c(F)cccc4F)CC3)n2)cc1 [Compound 1-15, 4-{2-[1-(2,6-difluorophenyl)cyclopropyl]-1,3-thiazol-4-yl}benzonitrile]
N#Cc1ccc(-c2csc(C3(c4ccccc4)CC3)n2)cn1 [Compound 2-2, 5-[2-(1-phenylcyclopropyl)-1,3-thiazol-4-yl]pyridine-2-carbonitrile]
Clc1cccc(C2(c3nc(-c4ccncc4)cs3)CC2)c1 [Compound 9-10, 4-{2-[1-(3-chlorophenyl)cyclopropyl]-1,3-thiazol-4-yl}pyridine]
